Source: article PMC8067314, “Uptake of Vitamins D2, D3, D4, D5, D6, and D7 Solubilized in Mixed Micelles by Human Intestinal Cells, Caco-2, an Enhancing Effect of Lysophosphatidylcholine on the Cellular Uptake, and Estimation of Vitamins D’ Biological Activities” (Nutrients, 2021)
Blank lines part the entries; values can stand above or below the molecule they belong to.

Tests used:
[1] = tested on: rats; design: method as in PMID 9017001; settings: cited from earlier work
[2] = tested on: dispersed Caco-2 cells; assay: Uptake of vitamin D from mixed micelles by dispersed Caco-2 cells; type: in vitro ADME, human; settings: dispersed Caco-2 cells, 2 h
Excerpt: (§1) Since 2001, we have reported that lysophospholipids enhance the uptake of micellar carotenoids in Caco-2 cells. […] In the present study, using the same method, we examined whether the mechanism for the enhancing effect of lysophosphatidylcholine could be adapted to vitamin D, as well. To evaluate the impact of the degree of cell-cell adhesion/cell-matrix adhesion on vitamin D uptake by cells, we prepared in two different ways: i) dispersed Caco-2 cells without cell-cell adhesion/cell-matrix adhesion and ii) Caco-2 cells with insufficient cell-cell adhesion.
(i): The dispersed cells were prepared by trypsin treatment. After collecting the cells in the culture medium, the number of cells was counted and diluted with the medium. The cells were washed two times with FBS-free DMEM and then seeded in culture plate of 24-well for suspension cultures (SC plate; Greiner Bio-One, Frickenhausen, Germany) at a density of 15 × 10^4 cells per well containing the FBS-free DMEM (0.5 mL).
(§2) Subsequent operations are common to the two models of cells. The medium consisting of mixed micellar vitamin D (0.5 mL) was added to adhered cells or dispersed cells in individual wells containing FBS-free DMEM (0.5 mL), resulting in a total medium volume of 1.0 mL/well, and the final start concentrations of mixed micellar components were one-half the initial concentration. The cells were incubated in the same conditions as described above, i.e., in a CO2 incubator at 37 °C for 2 h, and then the cells were washed with 2 mM taurocholate/PBS, followed by two times with PBS. The vitamin D uptake and residual mixed micellar vitamin D were evaluated as the previous subsection, but the filtrate of residual mixed micellar vitamin D was diluted with a 2x-volume of H2O. The cellular protein content was also determined as above.

[3] = tested on: Caco-2 cells with insufficient cell-cell adhesion; assay: Uptake of vitamin D2 by adherent Caco-2 cells with insufficient cell-cell adhesion; type: in vitro ADME, human; settings: 2-h incubation
Excerpt: as §1
(ii): The cells that had insufficient cell-cell adhesion were prepared by reducing the culture period from 20–22 d for full differentiation to <7 d after the seeding described above.
as §2

[4] = tested on: rats; settings: line test, vitamins D provided as a crystal; cited from earlier work
[5] = tested on: chicks; settings: cited from earlier work
[6] = tested on: rats; settings: cited from earlier work
[7] = target: T1, Niemann-Pick C1-like 1 (NPC1L1) (Homo sapiens, UniProt Q9UHC9); assay: Inhibitory effect of ezetimibe on vitamin D uptake by differentiated Caco-2 cells (facilitated diffusion); type: in vitro ADME; settings: 150 μM ezetimibe pretreatment 2 h
T1 construct: host or cells: differentiated Caco-2 cells
T1 sequence (Q9UHC9 22-1359): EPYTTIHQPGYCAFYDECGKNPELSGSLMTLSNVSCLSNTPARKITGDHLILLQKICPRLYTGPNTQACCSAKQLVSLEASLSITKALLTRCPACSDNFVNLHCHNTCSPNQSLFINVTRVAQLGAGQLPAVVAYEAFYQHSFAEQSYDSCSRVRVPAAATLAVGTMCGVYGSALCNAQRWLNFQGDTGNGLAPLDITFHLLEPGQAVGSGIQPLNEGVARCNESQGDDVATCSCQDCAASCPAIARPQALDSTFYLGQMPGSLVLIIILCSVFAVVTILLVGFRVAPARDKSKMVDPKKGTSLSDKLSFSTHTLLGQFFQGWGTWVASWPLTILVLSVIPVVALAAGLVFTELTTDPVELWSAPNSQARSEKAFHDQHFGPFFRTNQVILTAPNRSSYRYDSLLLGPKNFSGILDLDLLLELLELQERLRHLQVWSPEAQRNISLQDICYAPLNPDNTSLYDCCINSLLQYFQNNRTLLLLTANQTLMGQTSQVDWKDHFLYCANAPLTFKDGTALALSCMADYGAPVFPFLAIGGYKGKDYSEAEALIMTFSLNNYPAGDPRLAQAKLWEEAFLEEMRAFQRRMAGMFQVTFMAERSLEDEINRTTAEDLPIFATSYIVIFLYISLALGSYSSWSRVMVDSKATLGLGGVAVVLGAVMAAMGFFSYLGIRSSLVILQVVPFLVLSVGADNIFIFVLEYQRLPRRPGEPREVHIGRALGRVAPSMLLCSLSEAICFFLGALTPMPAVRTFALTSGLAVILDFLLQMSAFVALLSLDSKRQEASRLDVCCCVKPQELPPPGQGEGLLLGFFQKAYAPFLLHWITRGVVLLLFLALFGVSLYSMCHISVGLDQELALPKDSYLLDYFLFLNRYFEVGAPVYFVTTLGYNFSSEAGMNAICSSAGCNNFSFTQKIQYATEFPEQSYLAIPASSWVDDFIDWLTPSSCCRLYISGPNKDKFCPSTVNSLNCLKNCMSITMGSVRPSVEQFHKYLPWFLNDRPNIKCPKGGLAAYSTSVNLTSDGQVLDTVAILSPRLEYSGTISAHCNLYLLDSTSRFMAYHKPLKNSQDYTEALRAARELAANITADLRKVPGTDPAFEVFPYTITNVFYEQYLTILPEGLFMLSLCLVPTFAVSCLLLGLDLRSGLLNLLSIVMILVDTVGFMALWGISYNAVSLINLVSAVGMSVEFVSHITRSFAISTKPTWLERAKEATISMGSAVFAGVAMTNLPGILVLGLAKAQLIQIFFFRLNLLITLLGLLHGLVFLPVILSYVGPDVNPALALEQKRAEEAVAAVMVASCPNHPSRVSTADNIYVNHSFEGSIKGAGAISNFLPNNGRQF
Procedure: In the present study, we evaluated the involvement of facilitated diffusion in the cellular uptake of each mixed micellar vitamin D2–D7 by using ezetimibe, an inhibitor of the protein Niemann-Pick C1-like 1 (NPC1L1). Ezetimibe was dissolved in dimethyl sulfoxide (DMSO), and then was added at a final concentration of 150 μM to the culture medium. At this time, the final concentration of DMSO was 1.5% (v/v). The differentiated Caco-2 cells were preincubated at 37 °C for 2 h with ezetimibe-containing culture medium (0.5 mL). The cells were washed two times with FBS-free DMEM (0.5 mL) and then treated with the medium containing mixed micellar vitamin D (0.5 mL) for 2 h, as described above. After treatment, cellular vitamin D, residual mixed micellar vitamin D, and the cellular protein content were evaluated as described in the previous subsection.

[8] = tested on: differentiated Caco-2 cells; assay: Uptake of vitamin D solubilized in mixed micelles by differentiated Caco-2 cells; type: in vitro ADME, human; settings: differentiated Caco-2 cells, lysophosphatidylcholine 50 μM in mixed micelles, 2 h; average for six vitamin D species
Procedure: Caco-2 cells were purchased from the American Type Culture Collection (Rockville, MD, USA). DMEM containing 10% FBS, 4 mM L-glutamine, penicillin and streptomycin (40 units/mL and 40 μg/mL, respectively), and nonessential amino acids (0.1 mM) were used as the culture medium. The cells were grown in the culture medium at 37 °C in a humidified atmosphere of 5% CO2 in air and then were cultured by passaging two times per week. We used differentiated Caco-2 cells, which have been widely used as a human intestinal model, for vitamin D uptake experiments. To induce differentiation of Caco-2 cells, the cells were seeded in culture plate of 24-well at a density of 5 × 10^4 cells per well containing 0.5 mL of the culture medium. Then, the medium was changed with fresh medium two times per week for 20–22 d. We have previously reported that the cell monolayers obtained by this method had sufficient cell-cell adhesion.
The mixed micelles were prepared as described in our previous reports. All of the components, i.e., taurocholate, monoolein, oleic acid, lysophosphatidylcholine, and vitamin D, were dissolved in an appropriate solvent. Portions of these solvent solutions were moved to glass tubes. The solvent was dried up with argon gas and further centrifugal evaporator. The dry matter was dispersed into FBS-free DMEM (same as the culture medium described above but without FBS). To remove any vitamin D not solubilized in the micelles, the resulting solution was passed through a filter (the pore size was 0.2-μm). The materials of mixed micelle and their concentrations were taurocholate (2 mM), monoolein (100 μM), oleic acid (33 μM), lysophosphatidylcholine (0 or 50 μM), and vitamin D (1 μM), respectively, unless otherwise stated. The concentrations were same as those used in our previous study. […] One part of the mixed micelles was diluted with four parts of methylene chloride/methyl alcohol (1:4, v/v), and then a portion (30 μL) was analyzed by high-pressure liquid chromatography (HPLC) as explained in the “2.8. […]

[9] = tested on: differentiated Caco-2 cells; assay: Cellular cholesterol in differentiated Caco-2 cells treated with mixed micelles containing lysophosphatidylcholine; type: cell-based, human; settings: 2 h, no vitamin D
Procedure: The saponification reaction was performed as follows. A portion (0.8 mL) of the cell homogenate was mixed with 200 μL of 40 μM β-sitosterol/ethyl alcohol as an internal standard, 85 μL of 10 M KOH, and 0.6 mL ethyl alcohol and then incubated at 60 °C for 2 h under argon gas. After cooling the reaction solution, cholesterol was extracted with ethyl acetate and n-hexane in the same manner as the extraction of vitamin D described above. The extract was additionally washed with 0.8 mL H2O before the solvent completely dried and then dissolved in 200 μL of methylene chloride/methyl alcohol/H2O (9:81:10, v/v/v). An aliquot (40 μL) was then subjected to HPLC as described in the “2.8. HPLC Analysis” subsection below. The cellular protein content was also determined as above.
Vitamin D and cholesterol were analyzed by using the HPLC system and columns which were the same as in our previous report. Mobile phase X was ethanenitrile/methyl alcohol/H2O (75:15:10, v/v/v), mobile phase Y was methyl alcohol/ethyl acetate (70:30, v/v), and mobile phase Z was methyl alcohol/isopropyl alcohol (70:30, v/v). These mobile phases contained 0.1% ammonium acetate. […] Vitamin D and cholesterol were quantified from the peak area at 265 nm and 210 nm, respectively, by using the respective calibration curve of the authentic standard.

SMILES: C=C1/C(=C\C=C2/CCC[C@]3(C)[C@@H]([C@H](C)CC[C@@H](CC)C(C)C)CC[C@@H]23)C[C@@H](O)C[C@@H]1O [1-OH-vitamin D5]
Activity for increasing the blood concentration of calcium relative to 1,25-di(OH)-vitamin D3 [1]: approximately one-sixth

Vitamin-D2 uptake from lysoPC mixed micelles relative to that from NoPC mixed micelles [2]: approximately one-sixth
SMILES: C=C1CC[C@H](O)C/C1=C/C=C1\CCC[C@]2(C)[C@@H]([C@H](C)/C=C/[C@H](C)C(C)C)CC[C@@H]12 [Vitamin D2]
Vitamin D2 uptake, NoPC vs lysoPC mixed micelles ([3]; Caco-2 cells cultured for 3 d): significantly higher by cells cultured for 3 d from NoPC mixed micelles
Vitamin D2 uptake, NoPC vs lysoPC mixed micelles ([3]; Caco-2 cells cultured for 5 d): no difference in the uptake amounts between NoPC mixed micelles and lysoPC mixed micelles
Vitamin D2 uptake, NoPC vs lysoPC mixed micelles ([3]; Caco-2 cells cultured for 7 d): uptake from lysoPC mixed micelles were significantly higher than those from NoPC mixed micelles
Anti-rickets activity, comparison of vitamins D [4]: highest activities and were similar
Intestinal absorption compared with vitamin D3 or D4 [5]: less absorbed than vitamin D3
Intestinal absorption compared with vitamin D3 [6]: slightly more easily absorbed than vitamin D3

Vitamin-D3 uptake blocked by ezetimibe [7]: 20–30%
inhibition at 150 µM ([7]; relative to vehicle control, NoPC and lysoPC mixed micelles, read-out: Inhibition of the uptakes of vitamins D2–D7 by ezetimibe): ~20%
SMILES: O=C1[C@H](CC[C@H](O)c2ccc(F)cc2)[C@@H](c2ccc(O)cc2)N1c1ccc(F)cc1 [ezetimibe]

SMILES: CCCCCCCCCCCCCCCC(=O)OC[C@@H](O)COP(=O)([O-])OCC[N+](C)(C)C [lysophosphatidylcholine, 1-16:0-2-OH-sn-glycerol-3-phosphocholine]
Enhancement of vitamin D uptake by lysophosphatidylcholine compared with NoPC [8]: 2.5 times
Effect on cellular cholesterol amounts ([9]; lysophosphatidylcholine at <100 μM in mixed micelles): tended to decrease the cellular cholesterol, but the decrease was not significant
Effect on cellular cholesterol amounts ([9]; lysophosphatidylcholine at >150 μM in mixed micelles): significantly decreased the cellular cholesterol
